Results published in patent US8008303B2, “Biphenyl derivatives and their use in treating hepatitis C” (AstraZeneca AB, priority 2005, dated 2011).
Like-named read-outs stand apart in the source and are kept apart here.

Assays:
[1] = system: HCV replicon cells Huh 9B; assay: HCV replicon assay (luciferase readout); assay type: cell-based
In short: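 Compounds, made up at twice final strength (final DMSO 1%), were added to subgenomic replicon cells one day after plating. Incubation then ran 72 h at 37 °C, 5% CO2, without G418. Replication was quantified as firefly luciferase luminescence in lysed cells, with cytotoxicity assessed on a duplicate clear plate.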

[2] = system: HCV replicon cells Huh 9B; assay type: cell-based
[3] = Hepatitis C virus, 72 h, concentration reducing replicon level (luciferase activity) by 50% vs untreated cell control, 72 h incubation
[4] = concentration reducing total cell area by 50% relative to DMSO controls, methylene blue, absorbance 620 nm, 72 h incubation

SMILES	IC50 [1, 3] [nM]	TD50 [2, 4]	IC50 ([1]; Hepatitis C virus, concentration reducing replicon level (luciferase activity) by 50% vs untreated cell control, 72 h incubation) [nM]	IC50 [1] [nM]	TD50 [2]
CCNC(=O)Nc1ccc(C)c(-c2ccc(C(=O)Nc3ccc(CN4CCS(=O)(=O)CC4)cc3)cc2)c1 [Example 188, 5′-(3-Ethyl-ureido)-2′-methyl-biphenyl-4-carboxylic acid [4-(1,1-dioxo-1lambda*6*-thiomorpholin-4-ylmethyl)-phenyl]-amide]	< 1000	* (* < 50 μM)	–	–	–
Cc1ccc(NC(=O)NC2CCCCC2)cc1-c1ccc(C(=O)Nc2ccc(CN3CCS(=O)(=O)CC3)cc2)cc1 [Example 189, 5′-(3-Cyclohexyl-ureido)-2′-methyl-biphenyl-4-carboxylic acid [4-(1,1-dioxo-1lambda*6*-thiomorpholin-4-ylmethyl)-phenyl]-amide]	< 1000	* (* < 50 μM)	–	–	–
CC(=O)C(=O)Nc1ccc(C)c(-c2ccc(C(=O)Nc3ccc(CN4CCS(=O)(=O)CC4)cc3)cc2)c1 [Example 190, 2′-Methyl-5′-(2-oxo-propionylamino)-biphenyl-4-carboxylic acid [4-(1,1-dioxo-1lambda*6*-thiomorpholin-4-ylmethyl)-phenyl]-amide]	< 1000	* (* < 50 μM)	–	–	–
O=C(Nc1ccc(CN2CCS(=O)(=O)CC2)cc1)c1ccc(-c2cc(NC(=O)C3CCCCC3)ccc2F)cc1 [Example 191, 5′-(Cyclohexanecarbonyl-amino)-2′-fluoro-biphenyl-4-carboxylic acid [4-(1,1-dioxo-1lambda*6*-thiomorpholin-4-ylmethyl)-phenyl]-amide]	> 5000	* (* < 50 μM)	–	–	–
O=C(Nc1ccc(CN2CCS(=O)(=O)CC2)cc1)c1ccc(-c2cc(NC(=O)C3CCCCC3)ccc2OC(F)(F)F)cc1 [Example 192, 5′-(Cyclohexanecarbonyl-amino)-2′-trifluoromethoxy-biphenyl-4-carboxylic acid [4-(1,1-dioxo-1lambda*6*-thiomorpholin-4-ylmethyl)-phenyl]-amide]	< 1000	* (* < 50 μM)	–	–	–
O=C(Nc1ccc(CN2CCS(=O)(=O)CC2)cc1)c1ccc(-c2cc(NC(=O)C3CCCCC3)ccc2Cl)cc1 [Example 193, 5′-(Cyclohexanecarbonyl-amino)-2′-chloro-biphenyl-4-carboxylic acid [4-(1,1-dioxo-1lambda*6*-thiomorpholin-4-ylmethyl)-phenyl]-amide]	< 1000	* (* < 50 μM)	–	–	–
O=C(Nc1ccc(CN2CCS(=O)(=O)CC2)cc1)c1ccc(-c2cc(NC(=O)C3CC3)ccc2Cl)cc1 [Example 194, 2′-Chloro-5′-(cyclopropanecarbonyl-amino)-biphenyl-4-carboxylic acid [4-(1,1-dioxo-1lambda*6*-thiomorpholin-4-ylmethyl)-phenyl]-amide]	< 1000	* (* < 50 μM)	–	–	–
Cc1ccc(NC(=O)C2CCC2)cc1-c1ccc(C(=O)Nc2ccc(CN3CCS(=O)(=O)CC3)cc2)cc1 [Example 195, 5′-(Cyclobutanecarbonyl-amino)-2′-methyl-biphenyl-4-carboxylic acid [4-(1,1-dioxo-1lambda*6*-thiomorpholin-4-ylmethyl)-phenyl]-amide]	< 1000	* (* < 50 μM)	–	–	–
O=C(Nc1ccc(CN2CCS(=O)(=O)CC2)cc1)c1ccc(-c2cccc(NC(=O)C3CCCCC3)c2)cc1 [Example 196, 3′-(Cyclohexanecarbonyl-amino)-biphenyl-4-carboxylic acid [4-(1,1-dioxo-1lambda*6*-thiomorpholin-4-ylmethyl)-phenyl]-amide]	1000 to 5000	* (* < 50 μM)	–	–	–
Cc1ccc(CNc2ccc3cn[nH]c3c2)cc1-c1ccc(C(=O)Nc2ccc(CN3CCS(=O)(=O)CC3)cc2)cc1 [Example 197, 5′-[(1H-Indazol-6-ylamino)-methyl]-2′-methyl-biphenyl-4-carboxylic acid [4-(1,1-dioxo-1lambda*6*-thiomorpholin-4-ylmethyl)-phenyl]-amide]	< 1000	** (** > 50 μM)	–	–	–
Cc1ccc(CNc2cccc(Br)c2)cc1-c1ccc(C(=O)Nc2ccc(CN3CCS(=O)(=O)CC3)cc2)cc1 [Example 198, 5′-[(3-Bromo-phenylamino)-methyl]-2′-methyl-biphenyl-4-carboxylic acid [4-(1,1-dioxo-1lambda*6*-thiomorpholin-4-ylmethyl)-phenyl]-amide]	1000 to 5000	* (* < 50 μM)	–	–	–
Cc1ccc(CNCc2cccc(Cl)c2)cc1-c1ccc(C(=O)Nc2ccc(CN3CCS(=O)(=O)CC3)cc2)cc1 [Example 199, 5′-[(3-Chloro-benzylamino)-methyl]-2′-methyl-biphenyl-4-carboxylic acid [4-(1,1-dioxo-1lambda*6*-thiomorpholin-4-ylmethyl)-phenyl]-amide]	–	* (* < 50 μM)	1000 to 5000	–	–
Cc1ccc(CNC(CO)Cc2cnc[nH]2)cc1-c1ccc(C(=O)Nc2ccc(CN3CCS(=O)(=O)CC3)cc2)cc1 (stereo not shown) [Example 200, 5′-{[1-Hydroxymethyl-2-(3H-imidazol-4-yl)-ethylamino]-methyl}-2′-methyl-biphenyl-4-carboxylic acid [4-(1,1-dioxo-1lambda*6*-thiomorpholin-4-ylmethyl)-phenyl]-amide]	> 5000	** (** > 50 μM)	–	–	–
Cc1ccc(NS(=O)(=O)c2ccc(Cl)cc2)cc1-c1ccc(C(=O)Nc2ccc(CN3CCS(=O)(=O)CC3)cc2)cc1 [Example 202, 5′-(4-Chloro-benzenesulfonylamino)-2′-methyl-biphenyl-4-carboxylic acid [4-(1,1-dioxo-1lambda*6*-thiomorpholin-4-ylmethyl)-phenyl]-amide]	1000 to 5000	** (** > 50 μM)	–	–	–
Cc1ccc(NS(=O)(=O)c2ccc(N3CCOCC3)nc2)cc1-c1ccc(C(=O)Nc2ccc(CN3CCS(=O)(=O)CC3)cc2)cc1 [Example 203, 2′-Methyl-5′-(6-morpholin-4-yl-pyridine-3-sulfonylamino)-biphenyl-4-carboxylic acid [4-(1,1-dioxo-1lambda*6*-thiomorpholin-4-ylmethyl)-phenyl]-amide]	1000 to 5000	* (* < 50 μM)	–	–	–
Cc1ccc(NS(=O)(=O)c2ccc(Cl)s2)cc1-c1ccc(C(=O)Nc2ccc(CN3CCS(=O)(=O)CC3)cc2)cc1 [Example 204, 5′-(5-Chloro-thiophene-2-sulfonylamino)-2′-methyl-biphenyl-4-carboxylic acid [4-(1,1-dioxo-1lambda*6*-thiomorpholin-4-ylmethyl)-phenyl]-amide]	1000 to 5000	* (* < 50 μM)	–	–	–
Cc1ccc(-c2noc(C3CC3)n2)cc1-c1ccc(C(=O)Nc2ccc(CN3CCS(=O)(=O)CC3)cc2)cc1 [Example 205, 5′-(5-Cyclopropyl-[1,2,4]oxadiazol-3-yl)-2′-methyl-biphenyl-4-carboxylic acid [4-(1,1-dioxo-1lambda*6*-thiomorpholin-4-ylmethyl)-phenyl]-amide]	> 5000	* (* < 50 μM)	–	–	–
Cc1ccc(-c2noc(C3CCCCC3)n2)cc1-c1ccc(C(=O)Nc2ccc(CN3CCS(=O)(=O)CC3)cc2)cc1 [Example 206, 5′-(5-Cyclohexyl-[1,2,4]oxadiazol-3-yl)-2′-methyl-biphenyl-4-carboxylic acid [4-(1,1-dioxo-1lambda*6*-thiomorpholin-4-ylmethyl)-phenyl]-amide]	> 5000	* (* < 50 μM)	–	–	–
Cc1ccc(-c2noc(C(C)C)n2)cc1-c1ccc(C(=O)Nc2ccc(CN3CCS(=O)(=O)CC3)cc2)cc1 [Example 207, 5′-(5-Isopropyl-[1,2,4]oxadiazol-3-yl)-2′-methyl-biphenyl-4-carboxylic acid [4-(1,1-dioxo-1lambda*6*-thiomorpholin-4-ylmethyl)-phenyl]-amide]	> 5000	* (* < 50 μM)	–	–	–
CCN(CC)CCNC(=O)c1ccc(NC(=O)c2ccc(-c3cc(C(=O)NC4CC4)ccc3C)cc2)cc1 [Example 208, 6-Methyl-biphenyl-3,4′-dicarboxylic acid 3-cyclopropylamide 4′-{[4-(2-diethylamino-ethylcarbamoyl)-phenyl]-amide}]	–	–	–	> 5000	* (key: * < 50 μM; ** > 50 μM)
Cc1ccc(NC(=O)c2ccco2)cc1-c1ccc(C(=O)NCc2cccc(Cl)c2)cc1 [Example 209, Furan-2-carboxylic acid [4′-(3-chloro-benzylcarbamoyl)-6-methyl-biphenyl-3-yl]-amide]	1000 to 5000	** (** > 50 μM)	–	–	–
CCOC(=O)c1ccc(-c2cc(NC(=O)OC(C)(C)C)ccc2C)cc1 [Example 210, 5′-tert-Butoxycarbonylamino-2′-methyl-biphenyl-4-carboxylic acid ethyl ester]	1000 to 5000	* (* < 50 μM)	–	–	–
Cc1ccc(NC(=O)c2ccc(Br)cc2)cc1-c1ccc(C(=O)Nc2ccc3cn[nH]c3c2)cc1 [Example 211, 5′-(4-Bromo-benzoylamino)-2′-methyl-biphenyl-4-carboxylic acid (1H-indazol-6-yl)-amide]	1000 to 5000	* (* < 50 μM)	–	–	–
Cc1ccc(NC(=O)c2ccc(Br)cc2)cc1-c1ccc(C(=O)Nc2ccc(-c3cnco3)cc2)cc1 [Example 212, 5′-(4-Bromo-benzoylamino)-2′-methyl-biphenyl-4-carboxylic acid (4-oxazol-5-yl-phenyl)-amide]	> 5000	** (** > 50 μM)	–	–	–
Cc1ccc(NC(=O)c2cccs2)cc1-c1ccc(C(=O)Nc2ccc3cn[nH]c3c2)cc1 [Example 213, Thiophene-2-carboxylic acid [4′-(1H-indazol-6-ylcarbamoyl)-6-methyl-biphenyl-3-yl]-amide]	1000 to 5000	* (* < 50 μM)	–	–	–
Cc1cccc(CNC(=O)c2ccc(-c3cc(NC(=O)c4cn[nH]c4)ccc3C)cc2)c1 [Example 214, 1H-Pyrazole-4-carboxylic acid [6-methyl-4′-(3-methyl-benzylcarbamoyl)-biphenyl-3-yl]-amide]	> 5000	* (* < 50 μM)	–	–	–
